Experimental data as given in US7423122B2, “N-terminal and C-terminal markers in nascent proteins” (priority 1999, dated 2008).
Where “and” joins values, the source holds several entries; their conditions need not be identical. Equal entries are not always repeated.

Assays:
α-HL = α-HL (Staphylococcus aureus, UniProt P09616)
α-hemolysin = α-hemolysin (Staphylococcus aureus, UniProt P09616)
[1] = tested on: E. coli T7 S30 transcription/translation extract; format: biochemical
[2] = tested on: E. coli S30 translation mixtures; format: biochemical
[3] = tested on: rabbit red blood cells (rRBCs); format: cell-based
[4] = tested on: E. coli T7 S30 transcription/translation extract; format: biochemical; remark: listed apart in the source

Sequence of α-hemolysin (P09616 26-319, looked up, natural form): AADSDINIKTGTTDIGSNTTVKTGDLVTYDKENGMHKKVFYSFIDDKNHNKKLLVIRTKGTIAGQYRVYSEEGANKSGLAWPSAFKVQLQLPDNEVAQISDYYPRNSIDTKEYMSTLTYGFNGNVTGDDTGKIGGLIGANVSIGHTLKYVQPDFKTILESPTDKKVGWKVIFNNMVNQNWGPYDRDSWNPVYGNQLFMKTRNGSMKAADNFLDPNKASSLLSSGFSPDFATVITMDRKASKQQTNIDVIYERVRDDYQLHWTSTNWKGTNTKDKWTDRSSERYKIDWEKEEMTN
Sequence of α-HL (P09616 26-319, looked up, natural form): as above

For “4,4-difluoro-5,7-dimethyl-4-bora-3a,4a-diaza-s-indacene [BODIPY-FL]”, the “molar ratio of incorporated BODIPY-FL to protein” value (α-HL) was 0.29+/−0.03%, the “amount of alpha-hemolysin detectable” value (α-hemolysin) was “Approximately 10 ng” and the “amount of protein detectable” value (α-hemolysin) was 0.3 ng. The “amount of α-hemolysin detectable” value (α-hemolysin) was 0.35-0.5 nanograms and the “smallest volume of original reaction mixture giving detectable α-HL band” value (α-hemolysin) was 0.007 µL.

With “4,4-difluoro-5,7-dimethyl-4-bora-3a, 4a-diaza-s-indacene propionic acid, sulfosuccinimidyl ester [BODIPY-FL, SSE]” the “level of fluorescence of HL band compared to non-sulfonated form” value [1] was “approximately 2 times”.

For “5-(and-6)-carboxyfluorescein, succinimidyl-ester [Fluorescein (FAM)]”, the “fluorescence of α-HL band relative to BODIPY-FL-SSE” value [1] was 8.4%.

“6-(fluorescein-5-(and-6) carboxamido)hexanoic acid, succinimidyl ester [Fluorescein (SFX)]” was tested, and the “fluorescence of α-HL band relative to BODIPY-FL-SSE” value [1] was 4.6%.

In the case of “6-(tetramethylrhodamine-5-(and-6)-carboxamido)hexanoic acid, succinimidyl ester [5/6-TAMRA]”, the “fluorescence of α-HL band relative to BODIPY-FL-SSE” value [1] is reported as 35%.

For Cc1c(CC(=O)ON2C(=O)CC(S(=O)(=O)O)C2=O)c(=O)oc2cc(N)ccc12 (stereo not drawn) [AMCA-sulfo-NHS, sulfosuccinimidyl 7-amino-4-methylcoumarin-3-acetate], the “detectability / incorporation of fluorescent α-HL bands” value (“detectability / incorporation” below) [2] was “easily detectable bands”.

With COc1ccc(-c2cnc(-c3cc[n+](Cc4cccc(C(=O)ON5C(=O)CCC5=O)c4)cc3)o2)cc1 [PyMPO, 1-(3-(succinimidyloxycarbonyl)benzyl)-4-(5-(4-methoxyphenyl)oxazol-2-yl) pyridininium bromide] the “reduction in fluorescence compared with BODIPY-FL” value [1] was “approximately an order of magnitude reduction in fluorescence”.

With Alexa 350-N-hydroxy-succinimide ester the “detectability / incorporation” value [2] was “seems to not incorporate as well as its neutral counterpart”.

For “succinimidyl 7-amino-methyl-amino-coumarin acetate [AMCA-NHS]”, the “detectability / incorporation” value [2] was “very low levels of detectable fluorescent bands”.

In the case of α-Hemolysin, the α-Hemolysin activity [3] is reported as 0.085 OD415 nm/μl and 0.083 OD415 nm/μl and the “earliest time of band detection after initiation of incubation” value [4] is reported as 5 min.
